Source: publication PMC11211886 (Frontiers in Pharmacology, 2024)

Key:
[1] = test system: CYP2B6 mRNA; test: CYP induction in human hepatocytes, CYP2B6 mRNA (RT-PCR); conditions: human five, Gene expression Fold Induction, CYP2B6, donor seven, 1000 µM
Procedure: (§1) […] […] […] Enzyme activity for each CYP isoform was reported as a fold change over vehicle control and the percent of positive control (detailed calculation in Supplementary 1.1). Hepatocytes were harvested with a lysis buffer from RNeasy 96 Kit (Qiagen Inc., Germantown, MD, USA) to isolate RNA, which was analyzed by real-time quantitative polymerase chain reaction (RT-PCR). […] Emax (the maximal observed induction) and EC50 (the concentration that supports half-maximal induction) were estimated by non-linear regression of fold increase in CYP mRNA expression versus concentration plots.
(§2) % of positive control = [(fold change in treated sample)-1] / [(fold change in positive control)-1] × 100
(§3) Based on the gene expression, a minimum of 4-fold increase of positive control compared to vehicle control, a minimum of 2-fold increase of the test article compared vehicle control and increased in a concentration-dependent manner was considered as the cutoff for a positive signal in in vitro induction assay.

[2] = target: P-gp (Homo sapiens, UniProt P08183); test: in vitro; conditions: human, Caco-2
Chain of P-gp (P08183 whole entry): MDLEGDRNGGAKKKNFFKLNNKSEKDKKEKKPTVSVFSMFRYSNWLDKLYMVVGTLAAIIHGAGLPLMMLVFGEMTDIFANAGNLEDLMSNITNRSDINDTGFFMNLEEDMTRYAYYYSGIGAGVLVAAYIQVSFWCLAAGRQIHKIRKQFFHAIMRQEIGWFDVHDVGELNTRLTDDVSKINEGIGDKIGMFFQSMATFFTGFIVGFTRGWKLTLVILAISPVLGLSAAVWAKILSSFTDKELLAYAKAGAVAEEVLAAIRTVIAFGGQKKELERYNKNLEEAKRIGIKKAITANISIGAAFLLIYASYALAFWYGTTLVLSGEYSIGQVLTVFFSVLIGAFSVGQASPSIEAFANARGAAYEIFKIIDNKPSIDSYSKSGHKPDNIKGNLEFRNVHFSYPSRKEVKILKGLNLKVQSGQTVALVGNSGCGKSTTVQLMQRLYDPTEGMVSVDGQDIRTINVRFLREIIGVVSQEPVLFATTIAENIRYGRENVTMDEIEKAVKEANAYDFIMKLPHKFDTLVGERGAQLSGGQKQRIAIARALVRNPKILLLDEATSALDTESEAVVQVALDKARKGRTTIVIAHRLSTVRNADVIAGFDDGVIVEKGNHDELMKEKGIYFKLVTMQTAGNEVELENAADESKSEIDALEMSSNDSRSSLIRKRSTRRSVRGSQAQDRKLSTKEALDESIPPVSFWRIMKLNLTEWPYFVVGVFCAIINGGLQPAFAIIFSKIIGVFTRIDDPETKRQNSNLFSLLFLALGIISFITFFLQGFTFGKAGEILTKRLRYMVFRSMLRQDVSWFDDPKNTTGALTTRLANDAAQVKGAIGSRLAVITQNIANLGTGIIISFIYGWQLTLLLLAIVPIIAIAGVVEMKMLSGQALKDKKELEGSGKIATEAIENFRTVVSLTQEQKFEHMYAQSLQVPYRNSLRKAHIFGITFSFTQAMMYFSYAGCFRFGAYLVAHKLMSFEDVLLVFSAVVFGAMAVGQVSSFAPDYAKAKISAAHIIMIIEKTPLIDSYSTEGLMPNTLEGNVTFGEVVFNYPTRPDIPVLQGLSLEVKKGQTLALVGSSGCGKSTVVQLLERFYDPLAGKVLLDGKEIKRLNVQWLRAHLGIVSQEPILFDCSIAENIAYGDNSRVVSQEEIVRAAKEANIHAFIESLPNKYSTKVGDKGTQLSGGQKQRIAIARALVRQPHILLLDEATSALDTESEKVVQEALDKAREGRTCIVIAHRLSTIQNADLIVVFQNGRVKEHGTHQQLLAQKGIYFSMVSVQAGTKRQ
Text: (§4) The experimental conditions were similar to those of the permeability study.

[3] = target: T1, OATP1B3 (Homo sapiens, UniProt Q9NPD5); test: OATP1B3 inhibition, β-estradiol 17-(β-D-glucuronide) uptake in transfected HEK293 cells
T1 sequence (Q9NPD5 1-702): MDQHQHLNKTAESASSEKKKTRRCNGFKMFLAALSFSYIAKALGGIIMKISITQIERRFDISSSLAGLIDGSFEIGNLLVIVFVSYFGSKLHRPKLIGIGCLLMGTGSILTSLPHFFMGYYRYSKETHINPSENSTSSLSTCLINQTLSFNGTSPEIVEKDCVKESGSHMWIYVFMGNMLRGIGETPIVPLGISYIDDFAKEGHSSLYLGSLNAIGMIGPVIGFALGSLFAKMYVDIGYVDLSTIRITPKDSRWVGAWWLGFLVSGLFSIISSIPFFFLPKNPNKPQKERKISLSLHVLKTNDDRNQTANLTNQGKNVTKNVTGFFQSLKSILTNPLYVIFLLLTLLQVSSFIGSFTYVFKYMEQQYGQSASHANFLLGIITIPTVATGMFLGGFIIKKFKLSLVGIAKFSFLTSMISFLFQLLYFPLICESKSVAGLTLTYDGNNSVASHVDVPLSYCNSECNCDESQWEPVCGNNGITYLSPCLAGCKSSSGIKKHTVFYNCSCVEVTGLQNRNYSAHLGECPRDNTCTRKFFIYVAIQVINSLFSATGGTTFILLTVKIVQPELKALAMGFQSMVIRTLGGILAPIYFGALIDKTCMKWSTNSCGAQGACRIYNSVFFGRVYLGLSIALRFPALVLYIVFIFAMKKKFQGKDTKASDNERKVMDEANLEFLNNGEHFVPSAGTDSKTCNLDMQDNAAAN
Procedure: (§5) The pre-incubation solutions were removed, and incubation solutions containing the inhibitors and probe substrates (or transport buffer containing an equal volume of vehicle control and probe substrates) were added and incubated at 37°C for 2 min (5 min for OATP1B3). The probe substrate for OAT1 was 4-aminohippuric acid (10 μM), for OAT3 was estrone 3-sulfate (10 μM), for OCT2 was metformin (100 μM), for OATP1B1 was β-estradiol 17-(β-D-glucuronide) (5 μM), for OATP1B3 was β-estradiol 17-(β-D-glucuronide) (10 μM), and for MATE1 and MATE2-K was tetraethylammonium (10 μM). After incubation, cells were washed three times with ice-cold transport buffer (25 mM HEPES, pH 7.4, pH 8.0 for overexpressing MATE1 and MATE2-K HEK293 cells) and lysed in distilled water. The concentrations of probe substrates were determined by LC-MS/MS, and a BCA Kit (Solarbio ®Life Sciences, Beijing, China) was used to determine the protein content in the cell lysate.
(§6) where C is the concentration of the drug in the cell lysate (nM), P is the protein concentration of the cell lysate (mg/mL), and T is the incubation time (minute). Uptake ratetest compound is the uptake rate of the substrate in the presence of the test compound. Uptake ratevehicle control is the uptake rate of the substrate in the presence of the vehicle control. Uptake ratepassive is the uptake rate of the substrate in the presence of the positive inhibitor at the top test concentration.

[4] = target: T2, OATP1B1 (Homo sapiens, UniProt Q9Y6L6); test: OATP1B1 inhibition, β-estradiol 17-(β-D-glucuronide) uptake in transfected HEK293 cells
T2 sequence (Q9Y6L6 1-691): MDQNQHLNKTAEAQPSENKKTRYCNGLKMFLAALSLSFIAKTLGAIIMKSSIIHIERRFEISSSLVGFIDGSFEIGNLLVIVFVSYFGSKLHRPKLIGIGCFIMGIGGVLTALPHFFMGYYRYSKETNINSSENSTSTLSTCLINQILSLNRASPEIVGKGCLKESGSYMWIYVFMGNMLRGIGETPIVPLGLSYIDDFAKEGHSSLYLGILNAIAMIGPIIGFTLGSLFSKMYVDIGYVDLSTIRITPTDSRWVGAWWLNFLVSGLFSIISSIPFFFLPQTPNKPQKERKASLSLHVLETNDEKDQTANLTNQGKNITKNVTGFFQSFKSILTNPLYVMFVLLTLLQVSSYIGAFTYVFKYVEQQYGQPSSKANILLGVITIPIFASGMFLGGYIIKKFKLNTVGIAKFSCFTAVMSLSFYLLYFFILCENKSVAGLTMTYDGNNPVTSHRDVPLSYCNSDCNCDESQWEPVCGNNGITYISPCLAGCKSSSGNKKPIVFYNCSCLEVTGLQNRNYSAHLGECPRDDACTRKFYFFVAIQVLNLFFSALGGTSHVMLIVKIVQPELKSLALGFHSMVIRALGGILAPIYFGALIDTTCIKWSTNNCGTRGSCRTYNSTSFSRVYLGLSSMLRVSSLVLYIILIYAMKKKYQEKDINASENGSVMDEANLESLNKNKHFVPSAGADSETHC
Procedure: as §5, §6

[5] = test system: CYP2C9 mRNA; test: CYP induction in human hepatocytes, CYP2C9 mRNA (RT-PCR); conditions: for Gene expression Percent of PC (%): 25 µM
Procedure: as §1, §2, §3

[6] = test system: CYP2C9; test: in vitro; conditions: human; for fold induction at 48 h, 25 µM: Enzyme activity Fold Induction
Procedure: as §1
(§7) The fold of vehicle control and the percent of positive control were calculated with the formulas below:
(§8) Fold of vehicle control = CYPs activity of test compound (or positive control) treated sample / CYPs activity of vehicle control treated sample
as §2
(§9) Based on the enzyme activity, a minimum of 2-fold increase compared to vehicle control for the positive control and ≥40% of the positive control for the test article was considered as the cutoff for a positive signal in in vitro induction assay.

[7] = test system: CYP2C8; test: in vitro; conditions: human; for fold induction at 48 h, 25 µM: Enzyme activity Fold Induction
Procedure: as §1, §7, §8, §2, §9

[8] = test system: CYP2C19; test: CYP induction in human hepatocytes, CYP2C19 enzyme activity; format: in vitro ADME; conditions: 25 µM
Procedure: as §1, §7, §8, §2, §9

[9] = test system: CYP2C8 mRNA; test: in vitro; conditions: human; for fold induction at 48 h, 25 µM: Gene expression Fold Induction
Procedure: as §1, §2, §3

[10] = test system: CYP1A2; test: in vitro; conditions: human; for fold induction at 48 h, 50 µM: Enzyme activity Fold Induction
Procedure: as §1, §7, §8, §2, §9

[11] = test system: CYP1A2 mRNA; test: in vitro; conditions: human; for fold induction at 48 h, 50 µM: Gene expression Fold Induction
Procedure: as §1, §2, §3

[12] = target: T3, BCRP (Homo sapiens, UniProt Q9UNQ0); test: in vitro; conditions: Caco-2
T3 sequence (Q9UNQ0 1-655): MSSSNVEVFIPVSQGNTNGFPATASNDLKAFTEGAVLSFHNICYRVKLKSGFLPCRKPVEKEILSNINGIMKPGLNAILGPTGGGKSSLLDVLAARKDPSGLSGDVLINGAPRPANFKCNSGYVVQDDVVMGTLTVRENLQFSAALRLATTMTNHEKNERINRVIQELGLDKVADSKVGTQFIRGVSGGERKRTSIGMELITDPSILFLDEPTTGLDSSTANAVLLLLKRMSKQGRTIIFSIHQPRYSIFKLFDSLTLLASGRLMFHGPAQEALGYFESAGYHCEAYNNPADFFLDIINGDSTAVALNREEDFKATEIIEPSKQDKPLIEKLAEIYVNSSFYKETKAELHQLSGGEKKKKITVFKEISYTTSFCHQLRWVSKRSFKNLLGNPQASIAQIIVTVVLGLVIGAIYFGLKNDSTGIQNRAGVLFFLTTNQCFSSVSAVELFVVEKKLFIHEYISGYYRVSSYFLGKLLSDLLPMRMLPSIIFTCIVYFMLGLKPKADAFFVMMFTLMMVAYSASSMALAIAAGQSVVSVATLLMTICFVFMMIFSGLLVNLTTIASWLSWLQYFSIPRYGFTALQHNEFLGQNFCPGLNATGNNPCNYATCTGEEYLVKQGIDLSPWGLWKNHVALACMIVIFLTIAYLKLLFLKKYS
Text: as §4

[13] = Caco-2 bidirectional transport permeability; format: in vitro ADME, human; conditions: human
Procedure: The passage number of cells used in this study was 39. Non-specific binding to the device surfaces and the aqueous solubility of test compounds were tested before the transport experiment. […] The integrity of the monolayer was estimated by measuring transepithelial electrical resistance (TEER). Only the monolayers with TEER over 150 Ω were used for the studies.

CCC1(c2ccccc2)C(=O)NC(=O)NC1=O [Phenobarbital]
fold induction at 48 h, 1000 µM [1]: 9.45

C[C@H]1O[C@@H](O[C@H]2[C@@H](O)C[C@H](O[C@H]3[C@@H](O)C[C@H](O[C@H]4CC[C@@]5(C)[C@H](CC[C@@H]6[C@@H]5C[C@@H](O)[C@]5(C)[C@@H](C7=CC(=O)OC7)CC[C@]65O)C4)O[C@@H]3C)O[C@@H]2C)C[C@H](O)[C@@H]1O [Digoxin, reference compound]
Papp B→A at 60 min, 5 µM [2]: 25 ×10⁻⁶ cm/s

CO[C@H]1/C=C/O[C@@]2(C)Oc3c(C)c(O)c4c(O)c(c(/C=N/N5CCN(C)CC5)c(O)c4c3C2=O)NC(=O)/C(C)=C\C=C\[C@H](C)[C@H](O)[C@@H](C)[C@@H](O)[C@@H](C)[C@H](OC(C)=O)[C@@H]1C [Rifampicin, reference compound]
IC50 [3]: 611 nM | Percentage transported ([3]; human, 5 min, 10 μM, pH 7.4): 0.00% | Uptake rate ([3]; human, 5 min, 10 μM, pH 7.4): 4.46±0.829 pmol/mg protein/min | inhibition at 5 min, 10 µM ([3]; human, pH 7.4): 100% | IC50 [4]: 866 nM | Percentage transported ([4]; human, 2 min, 10 μM, pH 7.4): 0.00% | Uptake rate ([4]; human, 2 min, 10 μM, pH 7.4): 3.03±0.536 pmol/mg protein/min

CCOC(=O)c1ncn2c1CN(C)C(=O)c1cc(F)ccc1-2 [Flumazenil]
Gene expression Percent of PC (%) ([5]; CYP2C9, donor eight): 12.1% | Gene expression Percent of PC (%) ([5]; CYP2C9, donor four): 19.7% | Gene expression Percent of PC (%) ([5]; CYP2C9, donor one): 25.6% | fold induction at 48 h, 25 µM ([5]; female, human): 1.83 | fold induction at 48 h, 25 µM ([5]; human three, cryopreserved human hepatocytes (donor four)): 1.52 | fold induction at 48 h, 25 µM ([5]; male, human, cryopreserved human hepatocytes): 1.53 | Enzyme activity Percent of PC (%) ([6]; female, 48 h, 25 µM): 6.88% | fold induction at 48 h, 25 µM ([6]; female): 1.11 | Enzyme activity Fold Induction ([6]; male, 48 h, 25 µM): 1.14 fold | fold induction at 48 h, 25 µM ([6]; male): 1.05 | Enzyme activity Percent of PC (%) ([7]; female, 48 h, 25 µM): 3.75% | fold induction at 48 h, 25 µM ([7]; female): 1.18 | Enzyme activity Fold Induction ([7]; male, 48 h, 25 µM): 1.39 fold | fold induction at 48 h, 25 µM ([7]; male): 1.05 | Enzyme activity Percent of PC (%) ([8]; CYP2C19, donor eight): -3.72% | Enzyme activity Percent of PC (%) ([8]; CYP2C19, donor four): -3.91% | Enzyme activity Percent of PC (%) ([8]; CYP2C19, donor one): 1.83% | fold induction at 48 h, 25 µM ([8]; human three, cryopreserved human hepatocytes, probe S-(+)-mephenytoin (80 µM), CYP2C19, donor eight): 0.87 | Gene expression Percent of PC (%) ([9]; female, 48 h, 25 µM): 15.4% | fold induction at 48 h, 25 µM ([9]; female): 1.89 | Gene expression Fold Induction ([9]; male, 48 h, 25 µM): 0.92 fold | fold induction at 48 h, 25 µM ([9]; male): 1.05

COc1ccc2[nH]c([S+]([O-])Cc3ncc(C)c(OC)c3C)nc2c1 (stereo not drawn) [Omeprazole]
Enzyme activity Fold Induction ([10]; female, 48 h, 50 µM): 3.37 fold | fold induction at 48 h, 50 µM ([10]; female): 4.95 | fold induction at 48 h, 50 µM ([10]; male): 5.22 | Gene expression Fold Induction ([11]; female, 48 h, 50 µM): 25.5 fold | fold induction at 48 h, 50 µM ([11]; female): 15.6 | fold induction at 48 h, 50 µM ([11]; male): 20.3

C[C@]12CC[C@@H]3c4ccc(OS(=O)(=O)O)cc4CC[C@H]3[C@@H]1CCC2=O [E3S, Estrone-3-sulfate, reference compound]
Papp A-B of E3S [12]: 2.79 ×10–^6 cm/s | Papp B-A of E3S [12]: 77.8 ×10–^6 cm/s

COCCc1ccc(OCC(O)CNC(C)C)cc1 (stereo not drawn) [Metoprolol, reference compound]
Papp A→B at 60 min, 10 µM [13]: 39.4 ×10⁻⁶ cm/s | Papp B→A at 60 min, 10 µM [13]: 36.8 ×10⁻⁶ cm/s | efflux ratio at 60 min, 10 µM [13]: 0.935
